According to US8247211B2, “Glycopeptide antibiotics” (American Cyanamid Company, priority 2001, dated 2012):
≈ marks a conversion by molar mass, not a printed value.

Legend:
[1] = system: Enterococcus faecalis (GC 6189), vancomycin resistant strain; test: Acute lethal infection in mice (ED50); format: in vivo; conditions: female CD-1 mice, intraperitoneal challenge, intravenous dose 30 min. after infection, 7 day survival ratios
Outline: (§1)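 IP bacterial challenge, female CD-1 mice; inoculum lethal to untreated controls in 24-48 hr. IV dosing in saline or 5% dextrose 30 min post-infection, 5 mice/dose. ED50 from 7-day survival, 3 tests pooled.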

[2] = system: Streptococcus pneumoniae (GC 1894), penicillin resistant strain; test: Acute lethal infection in mice (ED50); format: in vivo; conditions: female CD-1 mice, intraperitoneal challenge, intravenous dose 30 min. after infection, 7 day survival ratios
Outline: as §1

[3] = system: Staphylococcus aureus-SMITH (GC 4543); test: Acute lethal infection in mice (ED50); format: in vivo; conditions: female CD-1 mice, intraperitoneal challenge, intravenous dose 30 min. after infection, 7 day survival ratios
Outline: as §1

[4] = system: Staphylococcus sp.; test: In vitro antibacterial evaluation: minimum inhibitory concentration (MIC), broth dilution method; format: cell-based; conditions: for MIC Staphylococcus aureus (ATCC 29213): strain ATCC 29213; for MIC Staphylococcus aureus (GC 1131): strain GC 1131; for MIC Staphylococcus aureus (GC 4541): strain GC 4541; for MIC Staphylococcus aureus (GC 4542): strain GC 4542; for MIC Staphylococcus aureus-SMITH (GC 4543): strain GC 4543; for MIC Staphylococcus aureus (GC 4544): strain GC 4544; for MIC Staphylococcus aureus (GC 4545): strain GC 4545; for MIC Staphylococcus haemolyticus (GC 4546): strain GC 4546; for MIC Coagulase Negative Staphylococcus (GC 4547): strain GC 4547; for MIC Coagulase Negative Staphylococcus (GC 4548): strain GC 4548; for MIC Coagulase Negative Staphylococcus (GC 4549): strain GC 4549; for MIC Coagulase Negative Staphylococcus (GC 4551): strain GC 4551; for MIC Coagulase Negative Staphylococcus (ID-3941): strain ID-3941
Outline: (§2)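 NCCLS M7-A2 broth dilution with Mueller-Hinton II, testing 64-0.06 μg/mL antibiotic against 5×10^5 CFU/mL inocula. Test strains include recent methicillin-, penicillin- or vancomycin-resistant clinical isolates. MIC is the lowest concentration preventing growth.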

[5] = system: Enterococcus sp.; test: as above; format: cell-based; conditions: broth dilution, 5×10^5 CFU/mL, 18 hours at 35° C.
Outline: as §2

[6] = system: Escherichia coli; test: as above; format: cell-based; conditions: 5×10^5 CFU/mL, 18 hours at 35° C.
Outline: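 Using Muller-Hinton II […] and an inoculum of 5×10^5 CFU/mL, antibiotic dilutions from 64 down to 0.06 μg/mL were tested following NCCLS M7-A2. The MIC is the lowest concentration inhibiting growth, including in methicillin-, penicillin- or vancomycin-resistant clinical isolates.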

[7] = system: Streptococcus sp.; test: as above; format: cell-based; conditions: broth dilution, 5×10^5 CFU/mL, 18 hours at 35° C.
Outline: as §2

[8] = broth dilution, 18 hours at 35° C.

## CCCC(C)C1OCC2OC(OC3C(CO)OC(Oc4ccc(CC5NC(=O)C(C(C)c6ccccc6)NC(=O)CNC(=O)C(CO)NC(=O)C(C(O)C6CNC(=N)N6C6OC(CO)C(O)C(O)C6O)NC(=O)C(C(O)C6CNC(=N)N6)NC5=O)cc4)C(O)C3O)C(O)C(O)C2O1 (stereo not drawn) [Example 111]
[1]
  median effective dose (ED50), Enterococcus faecalis (GC 6189): 0.28 mg/kg
[2]
  median effective dose (ED50), Streptococcus pneumoniae (GC 1894): 0.03 mg/kg
[3]
  median effective dose (ED50), Staphylococcus aureus-SMITH (GC 4543): 0.14 mg/kg
[4]
  MIC Staphylococcus aureus (ATCC 29213): 1 µg/mL (≈ 0.726 µM)
  MIC Staphylococcus aureus (GC 1131): 1 µg/mL (≈ 0.726 µM)
  MIC Staphylococcus aureus (GC 4541): 1 µg/mL (≈ 0.726 µM)
  MIC Staphylococcus aureus (GC 4542): 1 µg/mL (≈ 0.726 µM)
  MIC Staphylococcus aureus (GC 4544): 1 µg/mL (≈ 0.726 µM)
  MIC Staphylococcus aureus (GC 4545): 1 µg/mL (≈ 0.726 µM)
  MIC Staphylococcus haemolyticus (GC 4546): 1 µg/mL (≈ 0.726 µM)
  MIC Coagulase Negative Staphylococcus (GC 4547): 0.5 µg/mL (≈ 0.363 µM)
  MIC Coagulase Negative Staphylococcus (GC 4548): 1 µg/mL (≈ 0.726 µM)
  MIC Coagulase Negative Staphylococcus (GC 4549): 0.5 µg/mL (≈ 0.363 µM)
  MIC Coagulase Negative Staphylococcus (GC 4551): 1 µg/mL (≈ 0.726 µM)
  MIC Coagulase Negative Staphylococcus (ID-3941): 1 µg/mL (≈ 0.726 µM)
[4]; [8]
  MIC Staphylococcus aureus (ATCC 29213): 1 µg/mL (≈ 0.726 µM)
  MIC Staphylococcus aureus (GC 1131): 1 µg/mL (≈ 0.726 µM)
  MIC Staphylococcus aureus (GC 4541): 1 µg/mL (≈ 0.726 µM)
  MIC Staphylococcus aureus (GC 4542): 1 µg/mL (≈ 0.726 µM)
  MIC Staphylococcus aureus-SMITH (GC 4543): 1 µg/mL (≈ 0.726 µM)
  MIC Staphylococcus aureus (GC 4544): 1 µg/mL (≈ 0.726 µM)
  MIC Staphylococcus aureus (GC 4545): 1 µg/mL (≈ 0.726 µM)
  MIC Staphylococcus haemolyticus (GC 4546): 1 µg/mL (≈ 0.726 µM)
  MIC Coagulase Negative Staphylococcus (GC 4547): 0.5 µg/mL (≈ 0.363 µM)
  MIC Coagulase Negative Staphylococcus (GC 4548): 1 µg/mL (≈ 0.726 µM)
  MIC Coagulase Negative Staphylococcus (GC 4549): 0.5 µg/mL (≈ 0.363 µM)
  MIC Coagulase Negative Staphylococcus (GC 4551): 1 µg/mL (≈ 0.726 µM)
  MIC Coagulase Negative Staphylococcus (ID-3941): 1 µg/mL (≈ 0.726 µM)
[4]; 18 hours at 35° C.
  MIC Staphylococcus aureus-SMITH (GC 4543): 1 µg/mL (≈ 0.726 µM)
[5]
  MIC Enterococccus avium (GC 4558): 2 µg/mL (≈ 1.45 µM)
  MIC Enterococccus faecalis (ATCC 29212): 2 µg/mL (≈ 1.45 µM)
  MIC Enterococccus faecalis (GC 4552): 2 µg/mL (≈ 1.45 µM)
  MIC Enterococccus faecalis (GC 4553): 2 µg/mL (≈ 1.45 µM)
  MIC Enterococccus faecalis (GC 4554): 2 µg/mL (≈ 1.45 µM)
  MIC Enterococccus faecium (GC 2243): 1 µg/mL (≈ 0.726 µM)
  MIC Enterococccus faecium (GC 4556): 2 µg/mL (≈ 1.45 µM)
  MIC Enterococccus faecium (GC 4557): 0.5 µg/mL (≈ 0.363 µM)
  MIC Enterococcus faecalis (GC 2242): 1 µg/mL (≈ 0.726 µM)
[6]
  MIC Escherichia coli (ATCC 25922): 32 µg/mL (≈ 23.2 µM)
[7]
  MIC Streptococcus agalactiae (GC 4564): 1 µg/mL (≈ 0.726 µM)
  MIC Streptococcus pneumoniae (GC 4565): 0.5 µg/mL (≈ 0.363 µM)
  MIC Streptococcus pyogenes (ID-3187): 0.5 µg/mL (≈ 0.363 µM)
